Measurements taken from US9255090B2, “Heterocyclyl derivatives and their use as prostaglandin D2 receptor modulators” (Actelion Pharmaceuticals Ltd., priority 2012, dated 2016).

Target: hCRTH2 receptor (Homo sapiens (Human), UniProt Q9Y5Y4)
Assay: hCRTH2 receptor membranes radioligand (3H-PGD2) displacement assay
Format: binding
Details: 3H-PGD2 radioligand displacement, HEK293-hCRTH2 membranes
Outline: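 Compound was first mixed with buffer, then 3H-PGD2 was added at 2.5 nM, and the reaction was started with hCRTH2 membranes from HEK293 cells at 20 μg/well. After 90 min at room temperature, mixtures were filtered and washed with ice-cold buffer, and retained radioactivity was counted.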

Chain of hCRTH2 receptor (Q9Y5Y4 whole entry): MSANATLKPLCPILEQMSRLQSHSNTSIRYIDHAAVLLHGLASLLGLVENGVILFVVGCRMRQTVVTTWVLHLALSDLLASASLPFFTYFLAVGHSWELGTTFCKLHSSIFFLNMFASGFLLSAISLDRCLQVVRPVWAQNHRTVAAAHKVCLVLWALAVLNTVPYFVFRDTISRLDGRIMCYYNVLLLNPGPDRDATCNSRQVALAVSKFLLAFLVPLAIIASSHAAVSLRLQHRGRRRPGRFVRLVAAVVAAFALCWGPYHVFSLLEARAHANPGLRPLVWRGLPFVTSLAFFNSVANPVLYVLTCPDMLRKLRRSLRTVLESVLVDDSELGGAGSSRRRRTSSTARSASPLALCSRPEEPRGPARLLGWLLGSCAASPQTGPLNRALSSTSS

Row | Compound | IC50 [µM]
1 | COc1ccc(CC(=O)O)cc1-c1ccc(Cl)c2c1CN(C(=O)CCCc1ccccc1F)CC2 [Example 74, (3-{5-Chloro-2-[4-(2-fluoro-phenyl)-butyryl]-1,2,3,4-tetrahydro-isoquinolin-8-yl}-4-methoxy-phenyl)-acetic acid] | 0.0105
2 | COc1ccc(CC(=O)O)cc1-c1ccc(Cl)c2c1CN(C(=O)CCc1cn(C)c3ccccc13)CC2 [Example 75, (3-{5-Chloro-2-[3-(1-methyl-1H-indol-3-yl)-propionyl]-1,2,3,4-tetrahydro-isoquinolin-8-yl}-4-methoxy-phenyl)-acetic acid] | 0.0384
3 | COc1ccc(CC(=O)O)cc1-c1ccc(Cl)c2c1CN(C(=O)CCc1ccccc1)CC2 [Example 76, {3-[5-Chloro-2-(3-phenyl-propionyl)-1,2,3,4-tetrahydro-isoquinolin-8-yl]-4-methoxy-phenyl}-acetic acid] | 0.0431
4 | COc1ccc(CC(=O)O)cc1-c1ccc(Cl)c2c1CN(C(=O)CCN1CCc3ccccc31)CC2 [Example 78, {3-[5-Chloro-2-(3-2,3-dihydro-indol-1-yl-propionyl)-1,2,3,4-tetrahydro-isoquinolin-8-yl]-4-methoxy-phenyl}-acetic acid] | 0.0615
5 | COc1ccc(CC(=O)O)cc1-c1ccc(F)c2c1CN(C(=O)[C@H]1C[C@@H]1c1ccccc1)CC2 [Example 81, {3-[5-Fluoro-2-((1S,2S)-2-phenyl-cyclopropanecarbonyl)-1,2,3,4-tetrahydro-isoquinolin-8-yl]-4-methoxy-phenyl}-acetic acid] | 0.0331
6 | COc1ccc(CC(=O)O)cc1-c1ccc(C(F)(F)F)c2c1CN(C(=O)C1CC1)CC2 [Example 82, [3-(2-Cyclopropanecarbonyl-5-trifluoromethyl-1,2,3,4-tetrahydro-isoquinolin-8-yl)-4-methoxy-phenyl]-acetic acid] | 0.25
7 | COc1ccc(/C=C/C(=O)N2CCc3c(F)ccc(-c4cc(CC(=O)O)ccc4OC)c3C2)cn1 [Example 86, (3-{5-Fluoro-2-[(E)-3-(6-methoxy-pyridin-3-yl)-acryloyl]-1,2,3,4-tetrahydro-isoquinolin-8-yl}-4-methoxy-phenyl)-acetic acid] | 0.0705
8 | COc1ccc(CC(=O)O)cc1-c1ccc(F)c2c1CN(C(=O)/C=C/c1sc(C)nc1C)CC2 [Example 87, (3-{2-[(E)-3-(2,4-Dimethyl-thiazol-5-yl)-acryloyl]-5-fluoro-1,2,3,4-tetrahydro-isoquinolin-8-yl}-4-methoxy-phenyl)-acetic acid] | 0.0938
9 | COc1ccc(CC(=O)O)cc1-c1ccc(F)c2c1CN(C(=O)/C=C/c1cccnc1)CC2 [Example 89, {3-[5-Fluoro-2-((E)-3-pyridin-3-yl-acryloyl)-1,2,3,4-tetrahydro-isoquinolin-8-yl]-4-methoxy-phenyl}-acetic acid] | 0.0572
10 | COc1ccc(CC(=O)O)cc1-c1ccc(F)c2c1CN(C(=O)CCc1cccc(C)n1)CC2 [Example 92, (3-{5-Fluoro-2-[3-(6-methyl-pyridin-2-yl)-propionyl]-1,2,3,4-tetrahydro-isoquinolin-8-yl}-4-methoxy-phenyl)-acetic acid] | 0.0157
11 | COc1ccc(CC(=O)O)cc1-c1ccc(F)c2c1CCN(C(=O)[C@@H]1C[C@H]1c1ccccc1)C2 [Example 99, {3-[8-Fluoro-2-((1R,2R)-2-phenyl-cyclopropanecarbonyl)-1,2,3,4-tetrahydro-isoquinolin-5-yl]-4-methoxy-phenyl}-acetic acid] | 0.414
12 | COc1ccc(CC(=O)O)cc1-c1ccc(F)c2c1CCN(C(=O)CCCc1ccccc1)C2 [Example 100, {3-[8-Fluoro-2-(4-phenyl-butyryl)-1,2,3,4-tetrahydro-isoquinolin-5-yl]-4-methoxy-phenyl}-acetic acid] | 0.105
13 | COc1ccc(CC(=O)O)cc1-c1ccc(F)c2c1CCN(C(=O)CCc1ccccc1)C2 [Example 101, {3-[8-Fluoro-2-(3-phenyl-propionyl)-1,2,3,4-tetrahydro-isoquinolin-5-yl]-4-methoxy-phenyl}-acetic acid] | 0.0647
14 | COc1ccc(CC(=O)O)cc1-c1ccc(F)c2c1CCN(C(=O)CCOc1ccccc1)C2 [Example 102, {3-[8-Fluoro-2-(3-phenoxy-propionyl)-1,2,3,4-tetrahydro-isoquinolin-5-yl]-4-methoxy-phenyl}-acetic acid] | 0.043
15 | COc1ccc(CC(=O)O)cc1-c1ccc(F)c2c1CCN(C(=O)COCc1ccccc1Cl)C2 [Example 103, (3-{2-[2-(2-Chloro-benzyloxy)-acetyl]-8-fluoro-1,2,3,4-tetrahydro-isoquinolin-5-yl}-4-methoxy-phenyl)-acetic acid] | 0.0692

Results, then the molecule that gave them:

Row | IC50 [µM] | Compound
16 | 0.024 | COc1ccc(CC(=O)O)cc1-c1ccc(Cl)c2c1CN(C(=O)CCN1CCCc3ccccc31)CC2 [Example 77, {3-[5-Chloro-2-(3-3,4-dihydro-2H-quinolin-1-yl-propionyl)-1,2,3,4-tetrahydro-isoquinolin-8-yl]-4-methoxy-phenyl}-acetic acid]
17 | 0.0378 | COc1ccc(CC(=O)O)cc1-c1ccc(Cl)c2c1CN(C(=O)CCc1c(C)[nH]c3ccccc13)CC2 [Example 79, (3-{5-Chloro-2-[3-(2-methyl-1H-indol-3-yl)-propionyl]-1,2,3,4-tetrahydro-isoquinolin-8-yl}-4-methoxy-phenyl)-acetic acid]
18 | 0.0358 | COc1ccc(CC(=O)O)cc1-c1ccc(F)c2c1CN(C(=O)/C=C/c1ccccc1)CC2 [Example 85, (3-{5-Fluoro-2-[(E)-(3-phenyl-acryloyl)]-1,2,3,4-tetrahydro-isoquinolin-8-yl}-4-methoxy-phenyl)-acetic acid]
19 | 0.00914 | COc1ccc(CC(=O)O)cc1-c1ccc(F)c2c1CN(C(=O)/C=C/c1nc3ccccc3s1)CC2 [Example 88, {3-[2-((E)-3-Benzothiazol-2-yl-acryloyl)-5-fluoro-1,2,3,4-tetrahydro-isoquinolin-8-yl]-4-methoxy-phenyl}-acetic acid]
20 | 0.0491 | COc1ccc(CC(=O)O)cc1-c1ccc(F)c2c1CN(C(=O)/C=C/c1cc(C)nn1C)CC2 [Example 90, (3-{2-[(E)-3-(2,5-Dimethyl-2H-pyrazol-3-yl)-acryloyl]-5-fluoro-1,2,3,4-tetrahydro-isoquinolin-8-yl}-4-methoxy-phenyl)-acetic acid]
21 | 0.0321 | COc1ccc(CC(=O)O)cc1-c1ccc(F)c2c1CN(C(=O)CCc1ccccn1)CC2 [Example 91, {3-[5-Fluoro-2-(3-pyridin-2-yl-propionyl)-1,2,3,4-tetrahydro-isoquinolin-8-yl]-4-methoxy-phenyl}-acetic acid]
22 | 0.69 | COc1ccc(CC(=O)O)cc1-c1ccc(F)c2c1CN(C(=O)CCc1ncccn1)CC2 [Example 93, {3-[5-Fluoro-2-(3-pyrimidin-2-yl-propionyl)-1,2,3,4-tetrahydro-isoquinolin-8-yl]-4-methoxy-phenyl}-acetic acid]
23 | 0.418 | COc1ccc(CC(=O)O)cc1-c1ccc(F)c2c1CN(C(=O)COc1cccnc1)CC2 [Example 94, (3-{5-Fluoro-2-[2-(pyridin-3-yloxy)-acetyl]-1,2,3,4-tetrahydro-isoquinolin-8-yl}-4-methoxy-phenyl)-acetic acid]
24 | 0.0213 | COc1ccc(CC(=O)O)cc1-c1ccc(F)c2c1CCN(C(=O)CCN1CCCc3ccccc31)C2 [Example 104, {3-[2-(3-3,4-Dihydro-2H-quinolin-1-yl-propionyl)-8-fluoro-1,2,3,4-tetrahydro-isoquinolin-5-yl]-4-methoxy-phenyl}-acetic acid]
